Experimental data: article PMC10257182, “Discovery of senolytics using machine learning” (Nature Communications, 2023)
Read-outs that look alike come from different tables or passages of the source.

System: non-senescent control IMR90 ER:RAS cells
Assay: Nuclei count (Hoechst, high content imaging) senolytic assay, OIS model, non-senescent control cells
Type: cell-based, human
Details: Homo sapiens
Text: To test for senolytic activity, we compared the effect of each compound on the total cell number (automated high content image-based analysis of total number of nuclei per well) in non-senescent and senescent IMR90 ER:RAS cultures treated with the top hits from the computational screen (Figs. 2e and 3a–d and Supplementary Fig. 4a–c). The drop in cell number compared to untreated controls is indicated by the nuclei count and reflects cell death[13],[15]. As positive control, we employed ouabain, a cardiac glycoside with well characterised senolytic activity.
We performed experimental validation of the compounds with z-score > 8 (Fig. 2e). […] We employed two cellular models of senescence: one of OIS and a second one of TIS. For the OIS case, we utilised IMR90 ER:RAS cells with 4-OHT at 100 nM. […] For the TIS model, we used A549 cells with etoposide at 100 μM. The exposure of the cells to etoposide lasted 48 h, after which period the cells were cultivated for a further three days with normal media.
IMR90 (CCL-186) human foetal lung fibroblasts and A549 (CCL-185) human lung adenocarcinoma cells were obtained from the American Type Culture Collection (ATCC, Manassas, VA). The cell lines were confirmed to be mycoplasma negative (Lonza MycoAlert, cat #LT07-118). IMR90 ER:RAS is a derivative of IMR90 cells expressing a switchable version of oncogenic H-Ras[84]. IMR90 ER:RAS and A549 cells were maintained in Dulbecco’s Modified Eagle Medium (DMEM, ThermoFisher) supplemented with foetal bovine serum (10%), L-glutamine (2 mM, ThermoFisher), and antibiotic-antimycotic solution (1%, ThermoFisher) and incubated under standard tissue culture conditions (37 °C and 5% CO2). For induction of the senescent phenotype, IMR90-ER:RAS cells were cultured in hydroxytamoxifen (4-OHT) (Sigma) added media at 100 nM final concentration. IMR90 were kept in culture for over 27 passages for replicative senescence. Cells were tested for mycoplasma on a regular basis.
Cells were seeded (50 μL per well) into 384-well plates (IMR90 ER:RAS cells in Nunc Optical Bottom Polybase Microplates [#142761, Thermo Scientific, Rochester, NY] and A549 cells in CELLSTAR Cell Culture Microplates [#781091, Greiner Bio-One, Kremsmünster, Austria]). Cells were incubated under standard tissue culture conditions for 24 h before the addition of compounds. Passage 14 IMR90 ER:RAS cells were seeded at 1300 cells per well in the control condition, and at 1600 cells per well in the senescent case. Passage 34 A549 cells were seeded at 7000 cells per well in the control condition, and at 10,000 cells per well in the senescent case.
Dose response plates were prepared with a DMSO control and a 10-point […] concentration range, and added to the compounds using a D300e digital dispenser (Tecan Trading AG, Switzerland) at a final concentration of between 10 μM and 10 nM. Every screened condition was carried out in triplicate. After 72 h of incubation with exposure to the compounds, cells were fixed by the addition of an equal volume of formaldehyde (8%, 50 μL; #BP531-500, Fisher Bioreagents, Fisher Scientific, Loughborough, Leicestershire) to the existing media, incubated at room temperature (30 min), and washed three times in phosphate-buffered saline (PBS). Cells were then permeabilised in Triton-X100 (0.1%, 50 μL) and incubated at room temperature (30 min) followed by three more washes with PBS.
Cells were stained with Hoechst 33342 for nuclei count (excitation/emission wavelength at 387/447 […], DAPI channel, original concentration at 10 mg/ml, final concentration at 2 μg/ml; H1399, Molecular Probes, Eugene, OR). The staining solution was prepared in bovine serum albumin solution (10%). The staining solution was added to each well (30 μL) and incubated in the dark at room temperature (30 min), followed by three washes with PBS and no final aspiration. Plates were foil sealed.

Q: What does the source list for `C[C@@H]1O[C@@H](O[C@H]2C[C@@H](O)[C@]3(CO)[C@H]4[C@H](O)C[C@]5(C)[C@@H](C6=CC(=O)OC6)CC[C@]5(O)[C@@H]4CC[C@]3(O)C2)[C@H](O)[C@H](O)[C@H]1O` [Ouabain, ouabain, reference compound]?
A: viability at 10 µM (IMR-90, 72 h, Control, log (dose) [M] -5, 72 h, mean n=3 (Fig 3C), read-out: Mean % Cell Survival): 15.9%; viability at 4.677 µM (IMR-90, 72 h, Control, log (dose) [M] -5.33, 72 h, mean n=3 (Fig 3C), read-out: Mean % Cell Survival): 22.3%; viability at 2.188 µM (IMR-90, 72 h, Control, log (dose) [M] -5.66, 72 h, mean n=3 (Fig 3C), read-out: Mean % Cell Survival): 23.9%; viability at 1 µM (IMR-90, 72 h, Control, log (dose) [M] -6, 72 h, mean n=3 (Fig 3C), read-out: Mean % Cell Survival): 27%; viability at 0.4677 µM (IMR-90, 72 h, Control, log (dose) [M] -6.33, 72 h, mean n=3 (Fig 3C), read-out: Mean % Cell Survival): 29.6%; viability at 0.2188 µM (IMR-90, 72 h, Control, log (dose) [M] -6.66, 72 h, mean n=3 (Fig 3C), read-out: Mean % Cell Survival): 46.7%; viability at 0.1 µM (IMR-90, 72 h, Control, log (dose) [M] -7, 72 h, mean n=3 (Fig 3C), read-out: Mean % Cell Survival): 60.8%; viability at 0.04677 µM (IMR-90, 72 h, Control, log (dose) [M] -7.33, 72 h, mean n=3 (Fig 3C), read-out: Mean % Cell Survival): 78.1%; viability at 0.02188 µM (IMR-90, 72 h, Control, log (dose) [M] -7.66, 72 h, mean n=3 (Fig 3C), read-out: Mean % Cell Survival): 87.3%; viability at 0.01 µM (IMR-90, 72 h, Control, log (dose) [M] -8, 72 h, mean n=3 (Fig 3C), read-out: Mean % Cell Survival): 88.3%; viability at 0.0464 µM (IMR-90, Control, 46.4 nM, normalised to DMSO, individual experiments (Fig 3B), read-out: % Cell Survival): 78.1%; viability at 10 µM (IMR-90, control cells, log (dose) [M] -5, read-out: % Cell Survival): 10.9%; viability at 4.677 µM (IMR-90, control cells, log (dose) [M] -5.33, read-out: % Cell Survival): 23.1%; viability at 2.188 µM (IMR-90, control cells, log (dose) [M] -5.66, read-out: % Cell Survival): 27%; viability at 1 µM (IMR-90, control cells, log (dose) [M] -6, read-out: % Cell Survival): 27.3%; viability at 0.4677 µM (IMR-90, control cells, log (dose) [M] -6.33, read-out: % Cell Survival): 29.4%; viability at 0.2188 µM (IMR-90, control cells, log (dose) [M] -6.66, read-out: % Cell Survival): 46%; viability at 0.1 µM (IMR-90, control cells, log (dose) [M] -7, read-out: % Cell Survival): 62.2%; viability at 0.04677 µM (IMR-90, control cells, log (dose) [M] -7.33, read-out: % Cell Survival): 81.7%; viability at 0.02188 µM (IMR-90, control cells, log (dose) [M] -7.66, read-out: % Cell Survival): 81.6%; viability at 0.01 µM (IMR-90, control cells, log (dose) [M] -8, read-out: % Cell Survival): 86%; IC50 (IMR-90, OIS model, non-senescent IMR90 ER:RAS, nuclei count, 72 h): 231 nM
